Where “and” joins values, the source holds several entries; their conditions need not be identical. Identical values can stand only once.
What was measured:
[1] = test system: Rattus norvegicus; experiment: Compound (po) was tested in vivo for inhibition of MAO activity remaining inside (N) 5-HT synaptosomes of rat hypothalamus.; format: functional
[2] = Ratio of the inhibition of MAO using [14C]-PEA and [14C]5-HT in rat brain; format: tissue-based
[3] = test system: Rattus norvegicus; experiment: Compound (po) was tested in vivo for inhibition of MAO activity remaining inside (N) NE synaptosomes of rat hypothalamus; format: functional
[4] = organism: Rattus norvegicus; experiment: The lowest dose that release DA causing increased motor activity in rat; format: functional
[5] = test system: Rattus norvegicus; experiment: (§1) Compound (po) was tested in vivo for inhibition of MAO activity remaining outside (EN) DA synaptosomes of rat striatum; format: functional
[6] = target: T1, Monoamine oxidase (Rattus norvegicus, UniProt P19643+P21396); experiment: Compound was tested in vitro for inhibition of MAO by using [14C]5-HT as substrate in rat brain mitochondrial preparation; format: tissue-based
T1 sequence (P19643 whole entry): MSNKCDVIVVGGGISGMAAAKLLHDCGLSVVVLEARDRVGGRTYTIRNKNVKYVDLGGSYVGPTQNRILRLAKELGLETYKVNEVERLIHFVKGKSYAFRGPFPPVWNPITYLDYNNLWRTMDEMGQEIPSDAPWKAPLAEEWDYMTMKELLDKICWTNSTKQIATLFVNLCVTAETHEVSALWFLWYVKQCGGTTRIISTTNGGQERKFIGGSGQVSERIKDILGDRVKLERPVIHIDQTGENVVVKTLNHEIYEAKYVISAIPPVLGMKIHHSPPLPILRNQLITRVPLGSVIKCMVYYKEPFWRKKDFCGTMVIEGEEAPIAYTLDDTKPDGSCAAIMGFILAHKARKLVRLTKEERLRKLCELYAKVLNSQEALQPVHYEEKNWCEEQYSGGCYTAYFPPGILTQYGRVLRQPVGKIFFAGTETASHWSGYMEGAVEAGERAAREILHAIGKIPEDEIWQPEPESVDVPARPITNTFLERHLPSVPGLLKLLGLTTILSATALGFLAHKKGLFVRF
T1 sequence (P21396 whole entry): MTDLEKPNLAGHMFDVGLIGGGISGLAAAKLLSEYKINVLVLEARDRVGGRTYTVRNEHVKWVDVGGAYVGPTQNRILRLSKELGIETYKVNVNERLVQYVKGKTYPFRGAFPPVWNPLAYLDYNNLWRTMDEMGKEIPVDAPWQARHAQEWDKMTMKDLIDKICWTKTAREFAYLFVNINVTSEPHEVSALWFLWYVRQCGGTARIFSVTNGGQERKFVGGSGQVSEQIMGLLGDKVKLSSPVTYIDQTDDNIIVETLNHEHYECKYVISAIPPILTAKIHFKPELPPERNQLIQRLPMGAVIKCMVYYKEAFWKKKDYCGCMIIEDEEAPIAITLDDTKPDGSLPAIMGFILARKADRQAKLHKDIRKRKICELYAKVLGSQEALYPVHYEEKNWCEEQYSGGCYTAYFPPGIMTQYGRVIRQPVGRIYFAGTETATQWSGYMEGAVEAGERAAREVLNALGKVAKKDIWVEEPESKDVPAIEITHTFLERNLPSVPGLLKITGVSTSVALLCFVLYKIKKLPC

[7] = target: T1, Monoamine oxidase; experiment: Compound was tested in vitro for inhibition of MAO by using [14C]phenylethylamine as substrate in rat brain mitochondrial preparation; format: tissue-based
[8] = target: Sodium-dependent serotonin transporter (Rattus norvegicus, UniProt P31652); experiment: Compound was tested in vitro for inhibition of Serotonin transporter uptake at serotonin uptake site
Chain of Sodium-dependent serotonin transporter (P31652 whole entry): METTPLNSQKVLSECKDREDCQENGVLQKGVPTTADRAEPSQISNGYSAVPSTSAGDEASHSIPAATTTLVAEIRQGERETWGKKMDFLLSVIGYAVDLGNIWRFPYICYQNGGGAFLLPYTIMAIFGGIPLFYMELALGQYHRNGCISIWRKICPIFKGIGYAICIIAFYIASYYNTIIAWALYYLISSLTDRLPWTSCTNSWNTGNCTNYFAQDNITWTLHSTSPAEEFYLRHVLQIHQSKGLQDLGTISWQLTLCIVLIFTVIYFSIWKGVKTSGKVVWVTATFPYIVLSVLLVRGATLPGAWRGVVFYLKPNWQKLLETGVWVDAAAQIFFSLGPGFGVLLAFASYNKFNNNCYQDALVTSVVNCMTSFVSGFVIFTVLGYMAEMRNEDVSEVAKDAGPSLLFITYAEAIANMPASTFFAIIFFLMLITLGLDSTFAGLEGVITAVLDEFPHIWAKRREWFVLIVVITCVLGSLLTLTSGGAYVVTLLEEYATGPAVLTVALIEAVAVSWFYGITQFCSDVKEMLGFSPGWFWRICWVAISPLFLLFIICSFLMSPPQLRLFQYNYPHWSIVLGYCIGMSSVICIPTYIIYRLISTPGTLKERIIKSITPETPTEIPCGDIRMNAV

[9] = organism: Rattus norvegicus; experiment: The lowest dose that release NE causing reversal of ptosis in rat; format: functional
[10] = target: Sodium-dependent dopamine transporter (Rattus norvegicus, UniProt P23977); experiment: In […] inhibition of DA uptake at dopamine uptake site; format: functional
Chain of Sodium-dependent dopamine transporter (P23977 whole entry): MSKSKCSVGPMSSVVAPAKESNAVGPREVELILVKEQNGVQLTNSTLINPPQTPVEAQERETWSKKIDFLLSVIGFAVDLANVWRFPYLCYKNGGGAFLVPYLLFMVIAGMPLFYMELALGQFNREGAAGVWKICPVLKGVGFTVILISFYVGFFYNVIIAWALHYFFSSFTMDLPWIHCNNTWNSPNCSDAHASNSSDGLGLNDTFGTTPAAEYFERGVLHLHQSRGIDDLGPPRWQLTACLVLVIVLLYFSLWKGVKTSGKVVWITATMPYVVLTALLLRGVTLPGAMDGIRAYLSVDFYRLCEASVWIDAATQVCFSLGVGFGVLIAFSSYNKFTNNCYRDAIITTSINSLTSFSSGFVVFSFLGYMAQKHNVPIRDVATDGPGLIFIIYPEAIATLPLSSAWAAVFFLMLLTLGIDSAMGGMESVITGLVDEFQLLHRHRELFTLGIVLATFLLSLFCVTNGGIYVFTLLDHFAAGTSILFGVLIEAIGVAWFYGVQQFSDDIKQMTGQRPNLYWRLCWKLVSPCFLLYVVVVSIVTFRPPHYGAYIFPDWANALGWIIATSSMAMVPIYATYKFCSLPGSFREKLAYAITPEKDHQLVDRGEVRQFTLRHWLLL

[11] = test system: Rattus norvegicus; experiment: Compound (po) was tested in vivo for inhibition of MAO activity remaining inside (N) DA synaptosomes of rat striatum; format: functional
[12] = organism: Rattus norvegicus; experiment: The lowest dose that release 5-HT causing a serotonin syndrome in rat; format: functional
[13] = Ratio of inhibition of MAO activity remaining outside (EN) and inside (N) synaptosomes; format: subcellular; details: Brain
[14] = target: Norepinephrine transporter (Rattus norvegicus, UniProt Q9WTR4); experiment: In vitro inhibition of NE uptake at NE uptake site; format: functional
Chain of Norepinephrine transporter (Q9WTR4 whole entry): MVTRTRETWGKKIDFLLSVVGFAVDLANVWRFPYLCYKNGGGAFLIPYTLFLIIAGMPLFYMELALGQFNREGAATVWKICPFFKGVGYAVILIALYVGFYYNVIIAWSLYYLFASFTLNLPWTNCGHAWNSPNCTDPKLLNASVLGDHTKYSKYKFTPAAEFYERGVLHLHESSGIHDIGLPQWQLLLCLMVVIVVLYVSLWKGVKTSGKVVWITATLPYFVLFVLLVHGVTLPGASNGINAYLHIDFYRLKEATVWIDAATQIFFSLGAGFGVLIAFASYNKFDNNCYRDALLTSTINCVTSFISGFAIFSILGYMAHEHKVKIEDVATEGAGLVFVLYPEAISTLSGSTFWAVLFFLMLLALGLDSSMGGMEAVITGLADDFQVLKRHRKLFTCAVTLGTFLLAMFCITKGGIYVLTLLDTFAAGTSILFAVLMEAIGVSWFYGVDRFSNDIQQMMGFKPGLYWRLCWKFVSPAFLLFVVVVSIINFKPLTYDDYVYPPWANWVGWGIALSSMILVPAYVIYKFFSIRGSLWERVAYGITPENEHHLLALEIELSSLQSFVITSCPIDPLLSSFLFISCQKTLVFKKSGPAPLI

[15] = test system: Rattus norvegicus; experiment: Compound (po) was tested in vivo for inhibition of Monoamino oxidase activity remaining inside (N) 5-HT synaptosomes of rat hypothalamus.; format: functional
[16] = target: T1, Monoamine oxidase; experiment: Compound was tested in vitro for inhibition of Monoamino oxidase by using [14C]phenylethylamine as substrate in rat brain mitochondrial preparation; format: tissue-based
[17] = target: T1, Monoamine oxidase; experiment: Compound was tested in vitro for inhibition of Monoamino oxidase by using [14C]5-HT as substrate in rat brain mitochondrial preparation; format: tissue-based
[18] = as §1; format: functional
[19] = test system: Rattus norvegicus; experiment: Compound (po) was tested in vivo for inhibition of MAO activity remaining outside (EN) 5-HT synaptosomes of rat hypothalamus.; format: functional

Row | Compound | ED50 [1] | Ratio [2] | ED50 [3] | ED50 [4] | ED50 [5] | IC50 [6] | IC50 [7] | IC50 [8] | ED50 [9] | IC50 [10] | ED50 [11] | ED50 [12] | Ratio [13] | IC50 [14] | ED50 [15] | IC50 [16] | IC50 [17] | ED50 [18] | ED50 [19]
1 | Cc1cc2c(cc1CC(C)N)CCN2 (configuration not stated) | > 61 µmol/kg | 13 | 49 µmol/kg | > 61 µmol/kg | > 61 µmol/kg | 13 µM | 170 µM | > 16 µM | > 61 µmol/kg | 6 µM | > 61 µmol/kg | > 61 µmol/kg | > 1 | 6 µM | – | – | – | – | –
2 | CC(N)Cc1ccc2c(c1)CCN2 (configuration not stated) | 1.8 µmol/kg | > 20 | 1.1 µmol/kg | 42 µmol/kg | 20 µmol/kg | 5 µM | > 100 µM | 1.8 µM | 17 µmol/kg | 3.8 µM | 0.8 µmol/kg | 42 µmol/kg | > 15 and > 31 and 25 | 0.36 µM | – | – | – | – | –
3 | CC(C)(N)Cc1ccc2c(c1)CCN2 | 4.4 µmol/kg | 929 | 12 µmol/kg | > 256 µmol/kg | 36 µmol/kg | 2.8 µM | 2600 µM | 1.9 µM | 64 µmol/kg | > 10 µM | 8 µmol/kg | 128 µmol/kg | – | 2.7 µM | – | – | – | – | –
4 | CC(N)Cc1ccc2c(c1Cl)CCN2 (configuration not stated) | 1.5 µmol/kg | 4000 | 1.6 µmol/kg | > 59 µmol/kg | 4.1 µmol/kg | 0.2 µM | 800 µM | 0.34 µM | 59 µmol/kg | > 10 µM | 2.2 µmol/kg | 59 µmol/kg | – | 0.32 µM | – | – | – | – | –
5 | Cc1cc(N(C)C)ccc1CC(C)N (configuration not stated) | 1.1 µmol/kg | > 1250 | 2 µmol/kg | > 300 µmol/kg | 4.4 µmol/kg | 0.8 µM | > 1000 µM | 0.1 µM | 15 µmol/kg | > 10 µM | 3.3 µmol/kg | 7.5 µmol/kg | – | 0.65 µM | – | – | – | – | –
6 | Cc1c(CC(C)N)ccc2c1CCN2 (configuration not stated) | 0.8 µmol/kg | > 625 | 1.1 µmol/kg | > 128 µmol/kg | 13 µmol/kg | 0.8 µM | > 500 µM | 0.38 µM | 128 µmol/kg | 9 µM | 4.6 µmol/kg | 64 µmol/kg | – | 0.75 µM | – | – | – | – | –
7 | CCC(N)Cc1ccc2c(c1)CCN2 (configuration not stated) | – | 57 | 32 µmol/kg | > 256 µmol/kg | 74 µmol/kg | – | – | 3.6 µM | 128 µmol/kg | 10 µM | 26 µmol/kg | 64 µmol/kg | – | 0.5 µM | 11 µmol/kg | 800 µM | 14 µM | – | –
8 | CCC(N)Cc1ccc2c(c1Cl)CCN2 (configuration not stated) | 9.1 µmol/kg | – | 11 µmol/kg | > 112 µmol/kg | 28 µmol/kg | – | – | 0.3 µM | > 112 µmol/kg | > 10 µM | 12 µmol/kg | 28 µmol/kg | 2 (2×) and 2.3 | 1.6 µM | – | – | – | – | –
9 | CCN1CCc2c1ccc(CC(C)N)c2C (configuration not stated) | 13 µmol/kg | > 455 | 9 µmol/kg | > 87 µmol/kg | 16 µmol/kg | 1.1 µM | > 500 µM | 1.5 µM | > 87 µmol/kg | > 10 µM | 10 µmol/kg | 87 µmol/kg | – | 7.5 µM | – | – | – | – | –
10 | CCN1CCc2cc(CC(C)N)c(C)cc21 (configuration not stated) | > 27 µmol/kg | 233 | 17 µmol/kg | > 87 µmol/kg | – | 0.33 µM | 77 µM | 2.2 µM | 87 µmol/kg | > 10 µM | 12 µmol/kg | > 87 µmol/kg | > 3 and 1.4 | 2.5 µM | – | – | – | 17 µmol/kg | > 27 µmol/kg
